Results as given in patent publication US9985214B2, “Monoamine compound, charge transport material, composition for charge transport film, organic electroluminescent element, organic EL display, and organic EL lighting” (Mitsubishi Chemical Corporation, priority 2009, dated 2018).

Key:
Format in all cases: physicochemical
[1] = Measurement of solubility in m-xylene; parameters: key: +: The compound dissolved.; −: The compound remained undissolved, giving a suspension, or separated out as crystals in 12 hours
From the text: <Measurement of Solubility in m-Xylene>
The compound I synthesized in [Synthesis of Compound I] above and the comparative compounds X-A and X-B represented by the following structural formulae were examined for solubility in m-xylene.

[2] = Glass transition temperature of the compound
[3] = Dissolution of the compound in the composition for luminescent-layer formation / production of element; conditions: same procedure as Example 2, cyclohexylbenzene as solvent; production of an element was impossible
Description: Next, a composition for luminescent-layer formation which included compound C3 represented by the following formula and the compound II obtained in Synthesis Example as charge-transporting compounds, phosphorescent metal complex D2, and cyclohexylbenzene as a solvent was prepared. The concentrations of the compound C3, the compound II, and the phosphorescent metal complex D2 in the composition were 1.25% by mass, 3.75% by mass, and 0.7% by mass, respectively.
The same procedure as in Example 2 was conducted, except that the compound X-C was used in place of the compound II.

SMILES	Solubility in m-xylene, Concentration 1.0 mass % [1]	Solubility in m-xylene, Concentration 5.0 mass % [1]	Solubility in m-xylene, Concentration 10 mass % [1]	Glass transition temperature [2] [°C]	behaviour of the compound after dissolution in the composition for luminescent-layer formation [3]
c1ccc(-c2cccc(-c3ccc(N(c4ccc(-c5cccc(-c6cccc(-n7c8ccccc8c8ccccc87)c6)c5)cc4)c4ccc(-c5cccc(-n6c7ccccc7c7ccccc76)c5)cc4)cc3)c2)cc1 [Compound I]	+	+	+	127	
c1ccc(-c2ccc(-c3ccc(N(c4ccc(-c5cccc(-c6cccc7ccccc67)c5)cc4)c4ccc(-c5cccc(-n6c7ccccc7c7ccccc76)c5)cc4)cc3)cc2)cc1 [Compound X-C]					crystallized after dissolved
c1cc(-c2ccc(N(c3ccc(-c4cccc(-n5c6ccccc6c6ccccc65)c4)cc3)c3ccc(-c4cccc(-n5c6ccccc6c6ccccc65)c4)cc3)cc2)cc(-n2c3ccccc3c3ccccc32)c1 [X-A]	+	−	−	159	
c1ccc(-c2cccc(-c3ccc(N(c4ccc(-c5cccc(-n6c7ccccc7c7ccccc76)c5)cc4)c4ccc(-c5cccc(-n6c7ccccc7c7ccccc76)c5)cc4)cc3)c2)cc1 [X-B]	−	−	−	120	
